From the RepoRT retention time repository (doi:10.1016/j.aca.2011.12.065)
Counter-ions that a name gives are not always drawn.

Columns and labels:
[1] = RP, Waters ACQUITY UPLC BEH C18, 100 × 2.1 mm, 1.7 µm; A: water + 0.1% formic acid, pH 3; B: 80% acetonitrile + 20% acetone + 0.1% formic acid, pH 3; gradient (min/%B) 0/0 6/100; conditions: stereoisomer not certain
[2] = RP, Waters ACQUITY UPLC HSS T3, 100 × 2.1 mm, 1.8 µm; A: water + 0.1% formic acid, pH 3; B: 30% methanol + 70% acetonitrile + 0.1% formic acid, pH 3; gradient (min/%B) 0.0/5 1.0/8 2.0/15 3.0/40 4.0/70 4.5/100 5.0/100 6.4/100 6.6/5.0 6.8/5.0 7.0/5.0; conditions: stereoisomer not certain

Row | SMILES | LC retention time [1] [min] | LC retention time [2] [min]
1 | CC(CCC(=O)O)C1CCC2C3C(O)CC4CC(O)CCC4(C)C3CC(O)C12C (centres undefined) [Cholic acid] | 3.4 | 4.46
2 | O=C(O)CC(O)(CC(=O)O)C(=O)O [Citric acid] | 0.785 | 0.659
3 | NC(=O)NCCCC(N)C(=O)O (centres undefined) [Citrulline] | 0.575 | 0.47
4 | CC12CCC(=O)C=C1CCC1C2C(=O)CC2(C)C1CCC2(O)C(=O)CO (centres undefined) [Cortisone] | 2.61 | 3.84
5 | CN1CC(=O)NC1=N [Creatinine] | 0.572 | 0.467
6 | CC(O)C1NC(=O)C2CCCN2C1=O (centres undefined) [Cyclic(pro-thr)] | 1.37 | 1.54
7 | CC(CCC(=O)O)C1CCC2C3CCC4CC(O)CCC4(C)C3CC(O)C12C (centres undefined) [Deoxycholic acid] | 3.94 | 4.62
8 | NC(CCCCNC(=O)CO)C(=O)O (centres undefined) [GALA ((2s)-2-amino-6-(2-hydroxy-acetylamino)-hexanoic acid)] | 0.676 | 0.527
9 | O=C(O)CCCC(=O)O [Glutaric acid] | 1.37 | 1.32
10 | O=C(O)CNC(=O)c1ccccc1 [Hippuric acid] | 1.77 | 3.1
11 | CC(C(=O)O)C(=O)O [Methylmalonic acid] | 1.27 | 0.539
12 | CC1(O)CCOC(=O)C1 (centres undefined) [Mevalonolactone] | 1.38 | 1.19
13 | CN(C)CC(=O)O [N,N-dimethylglycine] | 0.572 | 0.47
14 | CSCCC(NC(=O)Cc1ccccc1)C(=O)O (centres undefined) [N-phenylacetyl-methionine] | 2.58 | 3.79
15 | O=C(O)Cc1ccccc1 [Phenylacetic acid] | 1.19 | 0.861
16 | O=C(O)CCCCCC(=O)O [Pimelic acid] | 1.72 | 3.17
17 | O=C(O)C1CCCN1 (centres undefined) [Proline] | 0.626 | 0.506
18 | O=C1CCC(C(=O)O)N1 (centres undefined) [Pyroglutamic acid] | 0.836 | 0.731
19 | Cc1cc2nc3c(=O)[nH]c(=O)nc-3n(CC(O)C(O)C(O)CO)c2cc1C (centres undefined) [Riboflavin] | 1.68 | 3.38
20 | NCCS(=O)(=O)O [Taurine] | 0.556 | 0.47
21 | CC(CCC(=O)NCCS(=O)(=O)O)C1CCC2C3C(O)CC4CC(O)CCC4(C)C3CC(O)C12C (centres undefined) [Taurocholic acid] | 2.85 | 4.26
22 | CC(O)C(N)C(=O)O (centres undefined) [Threonine] | 0.574 | 0.475
23 | O=c1cc[nH]c(=O)[nH]1 [Uracil] | 0.752 | 0.628
24 | O=c1[nH]c(=O)c2[nH]c(=O)[nH]c2[nH]1 [Uric acid] | 0.752 | 0.618

Row | SMILES | LC retention time [1] [min] | LC retention time [2] [min]
25 | COc1cc(C(=O)O)ccc1O [Vanillic acid] | 1.78 | 3.17
26 | CNC(C)(C)C(=O)O [alfa-(methylamino)isobutyric acid] | 0.712 | 0.531
27 | OCC1OC(OC2C(CO)OC(O)C(O)C2O)C(O)C(O)C1O (centres undefined) [alfa-lactose monohydrate] | 0.6 | 0.476
28 | CC(C)c1cc2c(c(O)c1O)C13CCCC(C)(C)C1CC2OC3=O (centres undefined) [carnosol] | 4 | 4.51
29 | NC(CCCCNCC(=O)O)C(=O)O (centres undefined) [cml] | 0.676 | 0.527
30 | COC1=C(OC)C(=O)C(CC=C(C)C)=C(C)C1=O [coenzyme q1] | 3.92 | 4.47
31 | Nc1ccn(C2OC(CO)C(O)C2O)c(=O)n1 (centres undefined) [cytidine] | 0.749 | 0.533
32 | CC(C)(CO)C(O)C(=O)NCCC(=O)NCCSSCCNC(=O)CCNC(=O)C(O)C(C)(C)CO (stereo not drawn) [d-pantethine] | 1.87 | 3.44
33 | CC(CCC(=O)O)C1CCC2C3C(=O)CC4CC(=O)CCC4(C)C3CC(=O)C12C (centres undefined) [dehydrocholic acid] | 2.98 | 4.05
34 | O=C1CCCCN1 [delta-valerolactam] | 1.39 | 1.69
35 | NC(CCC(=O)O)C(=O)O (centres undefined) [glutamic acid] | 0.577 | 0.475
36 | CC(CCC(=O)NCC(=O)O)C1CCC2C3C(O)CC4CC(O)CCC4(C)C3CCC12C (centres undefined) [glycochenodeoxycholic acid] | 3.46 | 4.23
37 | CC(CCC(=O)NCC(=O)O)C1CCC2C3CCC4CC(O)CCC4(C)C3CC(O)C12C (centres undefined) [glycodeoxycholic acid] | 3.46 | 4.44
38 | CC(CCC(=O)NCC(=O)O)C1CCC2C3CCC4CC(O)CCC4(C)C3CCC12C (centres undefined) [glycolithocholic acid] | 3.56 | 4.61
39 | Nc1nc2c(ncn2C2OC(CO)C(O)C2O)c(=O)[nH]1 (centres undefined) [guanosine] | 1.26 | 1.18
40 | CC12CCC(=O)C=C1CCC1C2C(O)CC2(C)C1CCC2(O)C(=O)CO (centres undefined) [hydrocortisone, cortisol] | 2.63 | 3.87
41 | NCCS(=O)O [hypotaurine] | 0.576 | 0.468
42 | O=c1[nH]cnc2nc[nH]c12 [hypoxanthine] | 0.882 | 0.706
43 | OCC1OC(Oc2c[nH]c3ccccc23)C(O)C(O)C1O (stereo not drawn) [indoxyl beta-d-glucoside] | 1.7 | 2.92
44 | O=C(O)C1OC(Oc2c[nH]c3ccccc23)C(O)C(O)C1O (stereo not drawn) [indoxyl beta-d-glucuronide cyclohexylammonium salt] | 1.7 | 2.95
45 | O=c1c(O)c(-c2ccc(O)cc2)oc2cc(O)cc(O)c12 [kaempferol] | 2.76 | 3.88
46 | NC(CS)C(=O)O (stereo not drawn) [l-cysteine] | 0.603 | 0.491
47 | NC(CSSCC(N)C(=O)O)C(=O)O (stereo not drawn) [l-cystine] | 0.546 | 0.447
48 | NCCCCC(N)C(=O)O (stereo not drawn) [l-lysine] | 0.51 | 0.404

Row | SMILES | LC retention time [1] [min] | LC retention time [2] [min]
49 | NCCCC(N)C(=O)O (stereo not drawn) [l-ornithine monohydrochloride] | 0.517 | 0.415
50 | CCCCCCCCCCCC(=O)OC(CC(=O)[O-])C[N+](C)(C)C (stereo not drawn) [lauroyl l-carnitine] | 3.38 | 4.2
51 | CC(=O)CCC(=O)O [levulinic acid] | 1.39 | 1.46
52 | CCCCCCCCCCCCCCCC(=O)OCC(O)COP(=O)([O-])OCC[N+](C)(C)C (centres undefined) [lysoPC(16:0/0:0)] | 4.4 | 4.7
53 | CCCCCCCCC=CCCCCCCCC(=O)OCC(O)COP(=O)([O-])OCC[N+](C)(C)C (centres undefined) [lysoPC(18:1(9Z)/0:0)] | 4.5 | 4.72
54 | OC1C(O)C(O)C(O)C(O)C1O (centres undefined) [myo-inositol] | 0.571 | 0.465
55 | CC(=O)NC(CC(=O)O)C(=O)NC(CCC(=O)O)C(=O)O (centres undefined) [n-acetyl-asp-glu] | 1.28 | 0.863
56 | CC(=O)NC(Cc1ccc(O)cc1)C(=O)O (stereo not drawn) [n-acetyl-l-tyrosine] | 1.53 | 2.68
57 | CCCCCCCCCCCC(=O)N(C)CC(=O)O [n-lauroylsarcosine] | 4.27 | 4.6
58 | NC(=O)c1cccnc1 [nicotinamide] | 0.969 | 0.722
59 | O=C([O-])c1cc(=O)[nH]c(=O)[nH]1 [orotic acid] | 0.719 | 0.588
60 | Nc1ccc(C(=O)NCC(=O)O)cc1 [p-aminohippuric acid] | 1.29 | 1.2
61 | Nc1ccc(C(=O)O)cc1 [paba] | 1.5 | 2.09
62 | O=C1CCC(C(=O)N2CCCC2C(=O)O)N1 (centres undefined) [pglu-pro] | 1.43 | 2.02
63 | O=C(O)C(O)Cc1ccccc1 (centres undefined) [phenyllactic acid] | 2.08 | 3.49
64 | NC(CCCCn1c(C=O)ccc1CO)C(=O)O (centres undefined) [pyrraline] | 1.43 | 2.31
65 | O=C(O)c1ccc2ccccc2n1 [quinaldic acid] | 1.68 | 2.86
66 | CNCC(=O)O [sarcosine] | 0.574 | 0.468
67 | OCC1OC(OC2(CO)OC(CO)C(O)C2O)C(O)C(O)C1O (centres undefined) [sucrose] | 0.661 | 0.504
68 | CC(CCC(=O)NCCS(=O)(=O)O)C1CCC2C3CCC4CC(O)CCC4(C)C3CC(O)C12C (centres undefined) [taurodeoxycholic acid] | 3.33 | 4.46
69 | Cn1cnc2c1c(=O)[nH]c(=O)n2C [theobromine] | 1.37 | 2.14
70 | O=C(O)C1CC(O)CN1 (stereo not drawn) [trans-4-hydroxy-l-proline] | 0.577 | 0.479
71 | NCCc1c[nH]c2ccccc12 [tryptamine hydrochloride] | 1.53 | 2.65
72 | COc1cc(C=O)ccc1O [vanillin] | 2.03 | 3.45
